Molecular target: Tyrosine-protein kinase JAK2 (Homo sapiens, UniProt O60674)
Sequence (O60674 whole entry): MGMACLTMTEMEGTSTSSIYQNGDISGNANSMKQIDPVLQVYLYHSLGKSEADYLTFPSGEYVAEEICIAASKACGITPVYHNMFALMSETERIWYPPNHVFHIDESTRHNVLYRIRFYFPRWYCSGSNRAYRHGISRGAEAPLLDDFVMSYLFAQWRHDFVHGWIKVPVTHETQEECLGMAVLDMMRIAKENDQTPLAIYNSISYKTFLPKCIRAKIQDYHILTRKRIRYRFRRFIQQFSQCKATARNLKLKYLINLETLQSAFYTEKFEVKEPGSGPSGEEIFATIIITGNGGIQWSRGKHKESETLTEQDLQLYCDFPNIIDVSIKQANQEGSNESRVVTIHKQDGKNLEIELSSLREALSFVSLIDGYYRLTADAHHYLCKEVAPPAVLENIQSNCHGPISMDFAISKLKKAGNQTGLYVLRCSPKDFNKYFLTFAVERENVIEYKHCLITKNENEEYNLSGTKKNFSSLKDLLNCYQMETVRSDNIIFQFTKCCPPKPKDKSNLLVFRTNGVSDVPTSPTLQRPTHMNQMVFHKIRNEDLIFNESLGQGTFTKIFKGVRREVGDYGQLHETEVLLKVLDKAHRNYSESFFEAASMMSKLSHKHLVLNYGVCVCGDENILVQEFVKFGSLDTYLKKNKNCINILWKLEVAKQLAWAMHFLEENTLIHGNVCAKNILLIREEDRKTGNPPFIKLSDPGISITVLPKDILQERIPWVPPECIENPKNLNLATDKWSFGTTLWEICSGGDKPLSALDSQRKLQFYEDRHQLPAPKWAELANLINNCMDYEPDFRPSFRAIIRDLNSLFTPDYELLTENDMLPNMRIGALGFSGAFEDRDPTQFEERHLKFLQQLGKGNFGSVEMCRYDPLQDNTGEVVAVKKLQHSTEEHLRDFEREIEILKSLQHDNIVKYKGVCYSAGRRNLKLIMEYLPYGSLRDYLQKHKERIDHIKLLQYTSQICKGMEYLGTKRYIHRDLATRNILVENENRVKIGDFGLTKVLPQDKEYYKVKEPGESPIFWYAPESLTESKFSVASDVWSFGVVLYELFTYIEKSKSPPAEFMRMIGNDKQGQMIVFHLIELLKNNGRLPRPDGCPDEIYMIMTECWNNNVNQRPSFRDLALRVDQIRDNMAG

Compound	Ki
Cc1ccc(Nc2nc(-c3c(F)cccc3F)nc3c2C(=O)NC3)cc1 [US10196390, Compound I-21]	> 1000 nM
COC(=O)Cc1ncc(Nc2nc(-c3c(F)cccc3F)nc3c2C(=O)NC3)cn1 [US10196390, Compound I-166]	> 1000 nM
CCNC(=O)Cc1ncc(Nc2nc(-c3c(F)cccc3F)nc3c2C(=O)NC3)cn1 [US10196390, Compound I-169]	> 1000 nM
O=C1NCc2nc(-c3c(F)cccc3F)nc(Nc3ccc(OC(F)(F)F)cc3)c21 [US10196390, Compound I-184]	> 1000 nM
O=C1NCc2nc(-c3c(F)cccc3F)nc(Nc3ccc(C4CCCCC4)cc3)c21 [US10196390, Compound I-197]	> 1000 nM
O=C1NCc2nc(-c3c(F)cccc3F)cc(Nc3ccc(N4CCCC4)cn3)c21 [US10196390, Compound I-205]	> 1000 nM
O=C1NCc2nc(-c3c(F)cccc3F)cc(Nc3ccc(N4CCC5(CC5)C4)cn3)c21 [US10196390, Compound I-233]	> 1000 nM
O=C1NCc2nc(-c3c(F)cccc3F)cc(Nc3ccc(F)cn3)c21 [US10196390, Compound I-234]	< 10 nM
O=C1NCc2nc(-c3c(F)cccc3F)nc(Nc3ccc(S(=O)(=O)C(F)(F)F)cc3)c21 [US10196390, Compound I-236]	> 1000 nM
CC(C)N1CCN(c2ccc(Nc3cc(-c4c(F)cccc4F)nc4c3C(=O)NC4)nc2)CC1 [US10196390, Compound I-256]	< 10 nM
COc1ccc(Nc2cc(-c3c(F)cccc3C#N)nc3c2C(=O)NC3)nc1 [US10196390, Compound I-258]	< 10 nM
CCN(CC)C(=O)c1ccc(Nc2cc(-c3c(F)cccc3F)nc3c2C(=O)NC3)cc1 [US10196390, Compound I-259]	< 10 nM
C[C@H]1COC[C@H](C)N1c1ccc(Nc2cc(-c3c(F)cccc3F)nc3c2C(=O)NC3)nc1 [US10196390, Compound I-264]	< 10 nM
CC1(C)CCC(=O)N1c1ccc(Nc2cc(-c3c(F)cccc3F)nc3c2C(=O)NC3)nc1 [US10196390, Compound I-272]	< 10 nM
CN(c1ccc(Nc2cc(-c3c(F)cccc3F)nc3c2C(=O)NC3)nc1)C(C)(C)C [US10196390, Compound I-274]	< 10 nM
O=C1NCc2nc(-c3c(F)cccc3F)cc(Nc3ccc(NS(=O)(=O)C(F)F)cn3)c21 [US10196390, Compound I-277]	< 10 nM

Continued, values first:

Ki	Compound
< 10 nM	CC(C)(C)Nc1ccc(Nc2cc(-c3c(F)cccc3F)nc3c2C(=O)NC3)nc1 [US10196390, Compound I-278]
< 10 nM	CCNC(=O)c1ccc(Nc2cc(-c3c(F)cccc3C#N)nc3c2C(=O)NC3)nc1 [US10196390, Compound I-282]
< 10 nM	O=C1NCc2nc(-c3c(F)cccc3F)cc(Nc3ccc(C(=O)N4CCC(F)(F)CC4)cc3)c21 [US10196390, Compound I-283]
< 10 nM	C[C@@H]1COC[C@@H](C)N1C(=O)c1ccc(Nc2cc(-c3c(F)cccc3F)nc3c2C(=O)NC3)cc1 [US10196390, Compound I-285]
< 10 nM	N#Cc1cccc(F)c1-c1cc(Nc2ccc(C(=O)N3CCOCC3)cc2)c2c(n1)CNC2=O [US10196390, Compound I-287]
< 10 nM	CC1CC(O)CC(C)N1c1ccc(Nc2cc(-c3c(F)cccc3F)nc3c2C(=O)NC3)nc1 (stereo not drawn) [US10196390, Compound I-288]
> 1000 nM	Cc1ccc(Nc2nc(-c3c(F)cccc3F)nc3c2C(=O)NC3)cc1F [US10196390, Compound I-292]
